Reference: patent publication US20220323425A1, “CO-POTENTIATORS FOR THERAPY OF CYSTIC FIBROSIS CAUSED BY MINIMAL FUNCTION CFTR MUTANTS” (THE REGENTS OF THE UNIVERSITY OF CALIFORNIA, priority 2019, published 2022)
Like-named read-outs stand apart in the source and are kept apart here.

What was measured:
Format in all cases: cell-based
[1] = biological target: T1, W1282X-CFTR (Homo sapiens, UniProt P13569); assay: Structure-activity testing of co-potentiator analogs in FRT cells expressing W1282X-CFTR; conditions: for Relative Vmax (%)*: 100% Vmax corresponds to 20 μM ASP-11; for EC50: FRT cells expressing W1282X-CFTR
T1 construct: CFTR1281 (the truncation product generated by W1282X-CFTR); expressed in transfected cells
T1 sequence (P13569 1-1281 limits assumed): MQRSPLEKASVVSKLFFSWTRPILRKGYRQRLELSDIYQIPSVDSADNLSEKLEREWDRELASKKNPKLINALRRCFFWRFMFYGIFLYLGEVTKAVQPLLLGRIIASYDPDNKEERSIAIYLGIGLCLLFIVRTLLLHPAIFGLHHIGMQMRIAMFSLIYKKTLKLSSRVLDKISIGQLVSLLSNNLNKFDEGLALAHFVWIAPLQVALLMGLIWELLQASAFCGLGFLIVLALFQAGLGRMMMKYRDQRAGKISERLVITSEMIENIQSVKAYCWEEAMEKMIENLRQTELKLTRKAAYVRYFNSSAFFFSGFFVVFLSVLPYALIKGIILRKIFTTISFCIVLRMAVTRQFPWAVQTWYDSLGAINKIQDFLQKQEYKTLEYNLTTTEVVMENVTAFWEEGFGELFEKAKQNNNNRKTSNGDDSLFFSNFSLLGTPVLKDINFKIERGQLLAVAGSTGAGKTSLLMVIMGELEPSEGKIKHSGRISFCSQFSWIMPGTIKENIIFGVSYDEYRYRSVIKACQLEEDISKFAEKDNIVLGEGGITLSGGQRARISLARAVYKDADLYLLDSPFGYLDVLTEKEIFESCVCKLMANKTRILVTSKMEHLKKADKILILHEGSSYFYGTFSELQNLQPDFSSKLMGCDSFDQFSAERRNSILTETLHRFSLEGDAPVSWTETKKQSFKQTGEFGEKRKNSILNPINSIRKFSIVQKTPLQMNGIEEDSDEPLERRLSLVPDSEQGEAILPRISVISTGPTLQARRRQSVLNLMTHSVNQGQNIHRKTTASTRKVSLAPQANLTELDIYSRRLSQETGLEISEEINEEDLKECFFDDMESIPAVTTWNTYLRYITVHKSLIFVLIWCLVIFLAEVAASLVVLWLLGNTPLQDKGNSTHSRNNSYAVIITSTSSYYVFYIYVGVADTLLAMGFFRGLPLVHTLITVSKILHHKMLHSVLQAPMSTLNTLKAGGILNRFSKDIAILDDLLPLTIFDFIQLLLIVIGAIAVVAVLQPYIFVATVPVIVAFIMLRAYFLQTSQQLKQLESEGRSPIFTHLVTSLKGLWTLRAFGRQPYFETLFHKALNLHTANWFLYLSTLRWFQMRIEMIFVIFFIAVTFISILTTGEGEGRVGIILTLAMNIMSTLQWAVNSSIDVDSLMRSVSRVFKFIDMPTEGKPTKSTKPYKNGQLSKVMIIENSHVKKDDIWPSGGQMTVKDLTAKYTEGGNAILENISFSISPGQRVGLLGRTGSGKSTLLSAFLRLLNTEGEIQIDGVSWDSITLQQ
Procedure: To establish structure-activity relationships, 240 commercially available spiro[piperidine-4,1pyrido[3,4-b]indoles]analogs and 160 pyrazoloquinoline analogs were tested in FRT cells expressing W 1282X-CFTR. FIG. 5A summarizes the structural determinants for activity for the spiro[piperidine-4,1pyrido[3,4-b]indoles] reported in Table 1A (CP-Axxx designations).
High-throughput screening used a semi-automated screening platform (Beckman, Fullerton, Calif.) as described (Haggie, 2017). FRT cells expressing W1282X and YFP were plated in 96-well black-walled, clear-bottom tissue culture plates (Corning) at a density of 20,000 cells/well and grown for 24 h at 37° C. to ˜90% confluency. Cells were treated with 3 μM VX-809 for 24 hours. Cells were then washed twice with PBS, and incubated in 100 μl of PBS containing forskolin (10 μM), VX-770 (15 nM) and test compounds (25 μM) for 10 min prior to assay of CFTR activity. All plates contained wells with positive (5 μM VX-770+20 μM ASP-11) and negative (5 μM VX-770) controls. Assays were done using a BMG Labtech FLUOstar OMEGA plate reader (Cary, N.C.) over 12 s with initial fluorescence intensity recorded for 2 s prior to addition of 100 μl of NaI-substituted PBS (137 mM NaCl replaced with NaI). Initial iodide influx was computed from fluorescence intensity by single exponential regression. […]
(§1) GraphPad Prism software (GraphPad Inc., San Diego, Calif., USA) was used for statistical analysis. EC50 values were determined by non-linear regression to a single-site inhibition model. Statistical significance was determined using unpaired Student's t test, with P<0.05 considered significant.

[2] = biological target: N1303K-CFTR (Homo sapiens, UniProt P13569, N1303K); assay: Short-circuit current in FRT cells expressing N1303K-CFTR; set-up: expressed in transfected cells; host or cells: Fischer rat thyroid (FRT) cells; conditions: for EC50 / Relative Vmax (%)*: Table 1B; for EC50: cell line not given; for Relative Vmax (%)*: footnote to * not given; for short-circuit current response when added after VX-770: 20 μM forskolin, 5 μM VX-770, 20 μM test potentiator
Chain of N1303K-CFTR (P13569 whole entry N1303K): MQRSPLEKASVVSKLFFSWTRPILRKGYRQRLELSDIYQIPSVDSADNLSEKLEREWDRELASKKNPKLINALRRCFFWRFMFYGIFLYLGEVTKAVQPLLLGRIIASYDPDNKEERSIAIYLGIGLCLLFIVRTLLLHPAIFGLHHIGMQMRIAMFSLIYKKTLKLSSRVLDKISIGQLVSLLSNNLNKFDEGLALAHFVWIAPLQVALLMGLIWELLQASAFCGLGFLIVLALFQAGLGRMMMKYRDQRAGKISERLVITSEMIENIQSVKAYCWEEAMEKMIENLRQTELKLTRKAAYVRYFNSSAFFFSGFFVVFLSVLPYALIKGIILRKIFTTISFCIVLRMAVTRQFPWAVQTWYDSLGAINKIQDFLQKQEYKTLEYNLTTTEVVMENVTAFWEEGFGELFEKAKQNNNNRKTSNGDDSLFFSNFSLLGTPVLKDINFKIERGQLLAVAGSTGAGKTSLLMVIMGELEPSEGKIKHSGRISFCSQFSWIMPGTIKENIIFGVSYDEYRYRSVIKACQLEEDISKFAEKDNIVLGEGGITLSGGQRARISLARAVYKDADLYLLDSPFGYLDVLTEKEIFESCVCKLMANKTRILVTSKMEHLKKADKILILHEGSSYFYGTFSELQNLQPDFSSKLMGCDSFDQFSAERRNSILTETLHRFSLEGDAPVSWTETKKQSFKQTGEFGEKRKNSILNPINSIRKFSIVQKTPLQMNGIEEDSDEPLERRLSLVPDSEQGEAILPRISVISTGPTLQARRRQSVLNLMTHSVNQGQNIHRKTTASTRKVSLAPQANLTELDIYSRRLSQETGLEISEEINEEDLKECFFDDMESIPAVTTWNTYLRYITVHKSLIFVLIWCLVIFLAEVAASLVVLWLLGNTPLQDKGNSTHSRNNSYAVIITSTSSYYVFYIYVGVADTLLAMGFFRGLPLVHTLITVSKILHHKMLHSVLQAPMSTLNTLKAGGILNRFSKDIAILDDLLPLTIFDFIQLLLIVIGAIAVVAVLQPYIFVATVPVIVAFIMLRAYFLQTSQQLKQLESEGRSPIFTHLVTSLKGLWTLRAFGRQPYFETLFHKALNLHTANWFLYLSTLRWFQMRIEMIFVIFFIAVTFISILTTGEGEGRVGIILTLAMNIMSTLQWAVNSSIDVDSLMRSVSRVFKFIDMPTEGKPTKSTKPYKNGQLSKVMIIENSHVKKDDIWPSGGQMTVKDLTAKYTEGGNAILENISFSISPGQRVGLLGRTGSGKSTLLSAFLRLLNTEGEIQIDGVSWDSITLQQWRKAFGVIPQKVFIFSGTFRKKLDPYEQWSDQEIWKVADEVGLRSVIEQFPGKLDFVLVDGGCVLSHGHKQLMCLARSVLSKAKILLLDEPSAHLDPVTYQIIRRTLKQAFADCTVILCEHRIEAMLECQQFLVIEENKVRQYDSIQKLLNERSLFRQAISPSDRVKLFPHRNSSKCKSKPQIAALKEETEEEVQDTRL
Procedure: (§2) Short-circuit current was measured on cells cultured on permeable supports (Corning) as described (Haggie, 2017; Phuan, 2018). For FRT cells, the basolateral membrane was permeabilized with 250 μg/mL amphotericin B, and experiments were done using a HCO3^−-buffered system (in mM: 120 NaCl, 5 KCl, 1 MgCl2, 1 CaCl2), 5 Hepes, 25 NaHCO3, 10 glucose, pH 7.4) with a basolateral to apical chloride gradient (60 mM NaCl replaced by sodium gluconate in the apical solution). For human airway epithelial cells, symmetrical HCO3^−-buffered solutions (containing 120 mM NaCl) were used. Cells were equilibrated with 95% O2, 5% CO2 and maintained at 37° C. Hemichambers were connected to a DVC-1000 voltage clamp (World Precision Instruments Inc., Sarasota, Fla.) via Ag/AgCl electrodes and 3 M KCl agar bridges for recording of the short-circuit current.
as §1
Co-potentiator efficacy was initially determined by short-circuit current measurements in FRT cells expressing N1303K-CFTR in the presence of a transepithelial chloride gradient and with permeabilization of the basolateral cell membrane such that measured current directly reports CFTR channel activity. […] We previously defined potentiators as either class I compounds, including VX-770 and GLPG1837, or class II compounds such as the arylsulphonamide-pyrrolopyridine and spiro[piperidine-4,1-pyrido[3,4-b]indole] copotentiators that probably bind at distinct sites on CFTR. N1303K-CFTR expressing FRT cells treated with forskolin and GLPG1837 had similar 2i co-potentiator EC50 of 0.8±0.2 μM (FIG. 7B).

[3] = biological target: T2, Q1313X-CFTR (Homo sapiens, UniProt P13569); assay: Short-circuit current in FRT cells expressing Q1313X-CFTR; conditions: 20 μM forskolin; for short-circuit current response when added after VX-770: 5 μM VX-770, 25 μM apigenin, others 20 μM
T2 construct: several truncated forms of CFTR resulting from premature termination codons (PTCs) located in NBD2; expressed in transfected cells; host or cells: FRT cells, pIRESpuro3 vector, puromycin-selected clonal lines
T2 sequence (P13569 1-1312 limits assumed): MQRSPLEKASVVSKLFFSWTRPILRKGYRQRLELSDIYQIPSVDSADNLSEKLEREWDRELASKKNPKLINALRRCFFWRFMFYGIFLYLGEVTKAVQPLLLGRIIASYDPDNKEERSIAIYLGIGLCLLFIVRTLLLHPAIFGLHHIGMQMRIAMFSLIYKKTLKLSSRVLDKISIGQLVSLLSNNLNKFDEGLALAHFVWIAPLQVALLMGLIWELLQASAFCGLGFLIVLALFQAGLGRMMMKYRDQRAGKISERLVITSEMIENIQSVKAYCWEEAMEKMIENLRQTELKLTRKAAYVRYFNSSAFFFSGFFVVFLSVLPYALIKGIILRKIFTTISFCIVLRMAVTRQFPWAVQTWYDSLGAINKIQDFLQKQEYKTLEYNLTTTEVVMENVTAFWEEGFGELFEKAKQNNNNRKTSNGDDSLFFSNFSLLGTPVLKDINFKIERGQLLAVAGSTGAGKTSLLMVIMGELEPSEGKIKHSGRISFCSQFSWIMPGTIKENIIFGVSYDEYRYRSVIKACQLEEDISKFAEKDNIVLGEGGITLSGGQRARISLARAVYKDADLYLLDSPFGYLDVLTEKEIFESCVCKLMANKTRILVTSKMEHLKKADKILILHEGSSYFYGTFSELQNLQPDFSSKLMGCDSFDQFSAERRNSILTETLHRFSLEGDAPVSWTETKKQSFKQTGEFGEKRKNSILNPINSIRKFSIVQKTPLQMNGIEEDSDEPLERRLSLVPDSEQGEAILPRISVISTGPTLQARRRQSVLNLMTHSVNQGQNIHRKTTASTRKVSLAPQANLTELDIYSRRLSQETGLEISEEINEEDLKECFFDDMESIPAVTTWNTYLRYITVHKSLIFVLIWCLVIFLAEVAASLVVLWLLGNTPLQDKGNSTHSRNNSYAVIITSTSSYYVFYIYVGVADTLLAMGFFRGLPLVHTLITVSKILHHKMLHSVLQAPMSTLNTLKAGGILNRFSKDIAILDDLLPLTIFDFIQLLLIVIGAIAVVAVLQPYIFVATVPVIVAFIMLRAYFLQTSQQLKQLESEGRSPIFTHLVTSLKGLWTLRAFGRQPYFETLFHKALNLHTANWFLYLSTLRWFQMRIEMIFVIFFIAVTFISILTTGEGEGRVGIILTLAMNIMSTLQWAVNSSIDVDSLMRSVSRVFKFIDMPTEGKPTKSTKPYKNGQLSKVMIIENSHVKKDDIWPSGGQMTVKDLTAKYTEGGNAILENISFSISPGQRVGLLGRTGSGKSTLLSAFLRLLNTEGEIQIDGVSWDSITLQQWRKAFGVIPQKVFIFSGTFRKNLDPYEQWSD
Procedure: as §2, §1

Structure (SMILES)	Relative Vmax (%)* ([1]; Table 1A) [%]	EC50 ([1]; Table 1A, read-out: EC50 (μM))) [µM]	Relative Vmax (%)* ([1]; Table 2) [%]	EC50 ([1]; Table 2, read-out: EC50) [µM]	further results
COc1ccc2[nH]c3c(c2c1)CCNC31CCN(C(=O)Cc2ccccc2)CC1 [Compound A956]	6	> 30			
COc1ccc2[nH]c3c(c2c1)CCNC31CCN(Cc2cc(F)c(F)c(F)c2)CC1 [Compound 2d, 6′-Methoxy-1-(3,4,5-trifluorobenzyl)-2′,3′,4′,9′-tetrahydrospiro[piperidine-4,1′-pyrido[3,4-b]indole]]					EC50 [2]: 2.6 µM; Relative Vmax (%)* [2]: 121%
CC(C)c1ccc(NC(=O)C(c2ccccc2)N(C)C(=O)Cc2c[nH]c3ccccc23)cc1 (centres unmarked) [Compound P2, N-methyl-N-[2-[[4-(1-methylethyl)phenyl]amino]-2-oxo-1-phenylethyl]-1H-indole-3-acetamide, reference compound]					short-circuit current response when added after VX-770 [2]: did not further increase current; short-circuit current response when added after VX-770 [3]: did not elevate current
Cc1ccc2cc3c(N)nn(C(=O)c4ccc(F)cc4)c3nc2c1 [Compound D136]			11	18	
COc1ccc2cc3c(N)nn(C(=O)c4ccc([N+](=O)[O-])c(C)c4)c3nc2c1 [Compound D025]			3	> 30	
CCC(=O)N1CCC2(CC1)NCCc1c2[nH]c2ccc(OC)cc12 [Compound A350]	7	> 30			
COc1ccc2cc3c(N)nn(C(=O)Cc4ccc([N+](=O)[O-])cc4)c3nc2c1 [Compound D035]			1	> 30	
COc1ccc2cc3c(N)nn(C(=O)c4ccc(Cl)c([N+](=O)[O-])c4)c3nc2c1 [Compound D036]			11	> 30	
COc1ccc2[nH]c3c(c2c1)CCNC31CCN(C2CCCCC2)CC1 [Compound A714]	18	> 30			
COc1ccc2cc3c(N)nn(C(=O)c4ccc(F)cc4Cl)c3nc2c1 [Compound D018]			92	2.4	
COc1ccc2[nH]c3c(c2c1)CCNC31CCN(C)CC1 [Compound A764]	6	> 30			
COc1ccc2[nH]c3c(c2c1)CCNC31CCN(Cc2ccc(F)c(F)c2F)CC1 [Compound 2g, 6′-Methoxy-1-(2,3,4-trifluorobenzyl)-2′,3′,4′,9′-tetrahydrospiro[piperidine-4,1′-pyrido[3,4-b]indole]]					EC50 [2]: 4.1 µM; Relative Vmax (%)* [2]: 100%
COc1ccc2cc3c(N)nn(C(=O)c4ccc([N+](=O)[O-])cc4Cl)c3nc2c1 [Compound D038]			100	1.7	
COc1ccc2[nH]c3c(c2c1)CCNC31CCN(Cc2scnc2C)CC1 [Compound A666]	91	5.1			
COc1ccc2cc3c(N)nn(C(=O)Cc4ccc([N+](=O)[O-])cc4)c3nc2c1 [Compound D086]			3	> 30	
COc1ccc2[nH]c3c(c2c1)CCNC31CCN(S(C)(=O)=O)CC1 [Compound A145]	7	> 30			

Structure (SMILES)	Relative Vmax (%)* ([1]; Table 1A) [%]	EC50 ([1]; Table 1A, read-out: EC50 (μM))) [µM]	Relative Vmax (%)* ([1]; Table 2) [%]	EC50 ([1]; Table 2, read-out: EC50) [µM]	further results
c1ccc(CN2CCC3(CC2)NCCc2c3[nH]c3ccccc23)cc1 [Compound A357]	31	16			
Fc1ccc(CN2CCC3(CC2)NCCc2c3[nH]c3ccc(Cl)cc23)c(F)c1 [Compound 5c, 6′-Chloro-1-(2,4-difluorobenzyl)-2′,3′,4′,9′-tetrahydrospiro[piperidine-4,1′-pyrido[3,4-b]indole]]					EC50 [2]: 2.5 µM; Relative Vmax (%)* [2]: 89%
O=C(c1ccccc1)N1CCC2(CC1)NCCc1c2[nH]c2ccccc12 [Compound A815]	−4	> 30			
COc1ccc2nc3c(cc2c1)c(N)nn3C(=O)c1ccc([N+](=O)[O-])cc1Cl [Compound D138]			21	3.4	
COc1cccc(CN2CCC3(CC2)NCCc2c3[nH]c3ccccc23)c1 [Compound A534]	24	13			
COc1ccc2[nH]c3c(c2c1)CCNC31CCN(Cc2ccc(F)c(F)c2)CC1 [Compound A662]	100	2.6			
O=c1cc(-c2ccc(O)cc2)oc2cc(O)cc(O)c12 [apigenin]					short-circuit current response when added after VX-770 [3]: showed synergy; short-circuit current response when added after GLPG1837 ([3]; 20 μM GLPG1837): showed synergy
COc1ccc2cc3c(N)nn(C(=O)c4ccncc4)c3nc2c1 [Compound D003]			1	> 30	
Cc1cc(C)cc(N(Cc2ccc(Cl)cc2)S(=O)(=O)c2cccn3c(C)nnc23)c1 [W1282Xpot-C01, reference compound]					short-circuit current response when added after VX-770 [2]: activated N1303K-CFTR; activation by two Class II potentiators added together ([2]; W1282Xpot-C01 and ASP-11, 20 μM each, no Class I potentiator): little activation
COc1ccc2[nH]c3c(c2c1)CCNC31CCN(Cc2c(F)c(F)c(F)c(F)c2F)CC1 [Compound 2e, 6′-Methoxy-1-((perfluorophenyl)methyl)-2′,3′,4′,9′-tetrahydrospiro[piperidine-4,1′-pyrido[3,4-b]indole]]					EC50 [2]: 2.1 µM; Relative Vmax (%)* [2]: 134%
COc1ccc2c3c([nH]c2c1)C1(CCN(Cc2ccc(F)cc2F)CC1)NCC3 [Compound 5d, 1-(2,4-Difluorobenzyl)-7′-methoxy-2′,3′,4′,9′-tetrahydrospiro[piperidine-4,1′-pyrido[3,4-b]indole]]					EC50 [2]: 2.4 µM; Relative Vmax (%)* [2]: 100%
COc1cccc(CN2CCC3(CC2)c2[nH]c4ccccc4c2CCN3C)c1 [Compound A600]	4	> 30			
COc1ccc2cc3c(N)nn(C(=O)c4ccc(F)cc4)c3nc2c1 [Compound D010]			24	3.6	
COc1ccc2[nH]c3c(c2c1)CCNC31CCN(Cc2ccc(F)c(Cl)c2F)CC1 [Compound 1j, 1-(3-Chloro-2,4-difluorobenzyl)-6′-methoxy-2′,3′,4′,9′-tetrahydrospiro[piperidine-4,1′-pyrido[3,4-b]indole]]					EC50 [2]: 4.5 µM; Relative Vmax (%)* [2]: 120%
COc1ccc2cc3c(N)nn(C(=O)c4cc(OC)c(OC)c(OC)c4)c3nc2c1 [Compound D012]			3	> 30	
